Test results as given in the supplement of paper PMC13380429.
± gives the standard deviation of the averaged measurements.

Assays:
Settings in all cases: 72 h
Calu-3 [1] = experiment: relative viability EC50 (midpoint between 100% and the lowest measured viability); higher = less toxic
Caco-2 [2] = experiment: as above
HepG2 [3] = experiment: as above
Vero E6 [4] = experiment: as above
U2OS [5] = experiment: as above
Calu-3 [6] = experiment: cell viability relative to DMSO; higher = less toxic
Caco-2 [7] = experiment: as above
HepG2 [8] = experiment: as above
Vero E6 [9] = experiment: as above
U2OS [10] = experiment: as above
Calu-3 [11] = experiment: drug sensitivity score (DSS) for viability; higher = more toxic; extreme values may be limits of the assay
Caco-2 [12] = experiment: as above
HepG2 [13] = experiment: as above
Vero E6 [14] = experiment: as above
U2OS [15] = experiment: as above

Structure (SMILES) | relative viability EC50 (Calu-3 [1]) [µM] | relative viability EC50 (Caco-2 [2]) [µM] | relative viability EC50 (HepG2 [3]) [µM] | relative viability EC50 (Vero E6 [4]) [µM] | relative viability EC50 (U2OS [5]) [µM] | cell viability (Calu-3 [6]; 1 nM) [%] | cell viability (Calu-3 [6]; 10 nM) [%] | cell viability (Calu-3 [6]; 100 nM) [%] | cell viability (Calu-3 [6]; 1000 nM) [%] | cell viability (Calu-3 [6]; 10000 nM) [%] | cell viability (Caco-2 [7]; 1 nM) [%] | cell viability (Caco-2 [7]; 10 nM) [%] | cell viability (Caco-2 [7]; 100 nM) [%] | cell viability (Caco-2 [7]; 1000 nM) [%] | cell viability (Caco-2 [7]; 10000 nM) [%] | cell viability (HepG2 [8]; 1 nM) [%] | cell viability (HepG2 [8]; 10 nM) [%] | cell viability (HepG2 [8]; 100 nM) [%] | cell viability (HepG2 [8]; 1000 nM) [%] | cell viability (HepG2 [8]; 10000 nM) [%] | cell viability (Vero E6 [9]; 1 nM) [%] | cell viability (Vero E6 [9]; 10 nM) [%] | cell viability (Vero E6 [9]; 100 nM) [%] | cell viability (Vero E6 [9]; 1000 nM) [%] | cell viability (Vero E6 [9]; 10000 nM) [%] | cell viability (U2OS [10]; 1 nM) [%] | cell viability (U2OS [10]; 10 nM) [%] | cell viability (U2OS [10]; 100 nM) [%] | cell viability (U2OS [10]; 1000 nM) [%] | cell viability (U2OS [10]; 10000 nM) [%] | drug sensitivity score (Calu-3 [11]) | drug sensitivity score (Caco-2 [12]) | drug sensitivity score (HepG2 [13]) | drug sensitivity score (Vero E6 [14]) | drug sensitivity score (U2OS [15])
CCCNC(=O)N1N=C(c2ccc(N)cc2)c2cc3c(cc2C1C)OCO3 (stereo not given) [SYM-2206] | > 10 | > 10 | > 10 | > 10 | > 10 | 86.9 | 101 | 109 | 111 | 119 | 96.6 | 102 | 95.5 | 94.2 | 100 | 91.9 | 94.8 | 95.2 | 93 | 93.5 | 98.5 | 92.5 | 97.9 | 88.9 | 98.6 | 95.1 | 101 | 97.4 | 103 | 101 | 0 | 0 | 0 | 0 | 0
CN[C@@H]1[C@@H](O)[C@@H](O[C@@H]2[C@@H](O)[C@H](O[C@H]3OC(CN)=CC[C@H]3N)[C@@H](N)C[C@H]2N)OC[C@]1(C)O [Sisomicin (sulfate)] | > 10 | > 10 | > 10 | > 10 | > 10 | 105 ± 7.6 | 101.8 ± 0.35 | 97.1 ± 0.28 | 101 ± 4.5 | 105 ± 5.2 | 100 ± 6.2 | 100 ± 4.2 | 103 ± 2.8 | 100 ± 0.78 | 94.15 ± 0.49 | 108 ± 8.4 | 101 ± 4.7 | 107 ± 7.3 | 96.8 ± 1.3 | 98.1 ± 4.1 | 107 ± 8.3 | 107 ± 1.6 | 105 ± 4.5 | 98.5 ± 1.6 | 104 ± 2.9 | 101 ± 0.64 | 102 ± 0.49 | 99.7 ± 0.99 | 105 ± 3.1 | 99.4 ± 0.71 | 0 | 0 | 0 | 0 | 0
CN(C)C/C=C/C(=O)Nc1cccc(C(=O)Nc2cccc(Nc3ncc(Cl)c(-c4c[nH]c5ccccc45)n3)c2)c1 [THZ2] | 0.154 | 1.53 | 0.0771 | 2.75 | 0.303 | 103 | 104 | 83.1 | 33.5 | 42.9 | 97.8 | 99.9 | 98.4 | 80.9 | 25.6 | 114 | 89.4 | 44.7 | 3.5 | 2.7 | 104 | 103 | 103 | 95 | 6.5 | 97.8 | 102 | 96.6 | 10.2 | 8.3 | 14.9 | 7.1 | 24.2 | 5.9 | 16.8
CC(C)(O)c1ccn2c(-c3ccc(F)c(-c4ccc(F)cc4C#N)c3)cnc2c1F [TP-003] | > 10 | > 10 | > 10 | > 10 | > 10 | 106 | 91.9 | 102 | 114 | 92.7 | 98.7 | 96 | 93.6 | 103 | 95.6 | 98.3 | 96.4 | 97.9 | 103 | 102 | 97.6 | 99.1 | 92.3 | 103 | 103 | 96.7 | 94.1 | 104 | 96.5 | 99.4 | 0 | 0 | 0 | 0 | 0
CN1CCN(Cc2ccc(Nc3ncc(Cl)c(Nc4ccccc4S(=O)(=O)N(C)C)n3)cc2)CC1 [TP-0903] | > 10 | 1.69 | 0.948 | 1.51 | 2.06 | 92.3 | 92 | 89 | 110 | 80.2 | 109 | 96.3 | 102 | 85.9 | 33.4 | 107 | 109 | 99.8 | 50.4 | 7 | 112 | 105 | 103 | 75.8 | 7.4 | 95 | 98.2 | 95.1 | 89.1 | 21 | 0.3 | 5.9 | 11.2 | 8.8 | 6.2
Cc1ccc(-c2ccc(F)cc2COc2ccc(CCC(=O)O)cc2)cc1 [TUG-891] | > 10 | > 10 | > 10 | > 10 | > 10 | 93.6 | 97.7 | 105 | 96.6 | 105 | 93.8 | 91.7 | 87.9 | 98.5 | 92.4 | 109 | 96.7 | 100 | 117 | 110 | 101 | 102 | 100 | 97.9 | 99 | 97.8 | 101 | 94.2 | 93.6 | 99.2 | 0 | 0 | 0 | 0 | 0
C[C@]12C=CC(=O)C=C1CC[C@@H]1[C@@H]2CC[C@]2(C)OC(=O)CC[C@@H]12 [Testolactone] | > 10 | > 10 | > 10 | > 10 | > 10 | 98.5 | 97.3 | 101 | 99.5 | 105 | 94 | 97.1 | 87.1 | 91.1 | 93.8 | 66.7 | 103 | 93.1 | 94.1 | 111 | 98.5 | 91.3 | 94.9 | 88.1 | 96.8 | 95.8 | 98.2 | 95.4 | 102 | 91.8 | 0 | 0 | 0 | 0 | 0
